These are literature values, as cited in PMC11444200, “In Vitro Evaluation of Antipseudomonal Activity and Safety Profile of Peptidomimetic Furin Inhibitors” (Biomedicines, 2024).

SMILES strings stand for the structures. Read-outs that look alike come from different tables or passages of the source.

What is called Ki is a dissociation constant, usually derived from enzyme kinetics or from competition with a known ligand.

The test system of one data set is CYP3A4. Particulars: cited from earlier work.
The target of a further data set is furin. Particulars: read-out: Ki (furin); cited from earlier work.
The subject of a further data set is mice. Particulars: mice, cited from earlier work.
On the set-up of data set [1]: method as in PMID 29059503. Particulars: cited from earlier work.
Data set [2] relates to Mas-related G protein–coupled receptor X2 (MRGPRX2). Set-up: method as in PMID 38385828. The conditions noted are these: compared to MI-1851 and MI-2415; cited from earlier work.

Turning to `N=C(N)c1cccc(C[C@H](NS(=O)(=O)c2cccc(-c3ccc(Cl)cc3Cl)c2)C(=O)N2CCC(CCN)CC2)c1.O=C(O)C(F)(F)F.O=C(O)C(F)(F)F` [MI-432], the CYP3A4 inhibition result in the data set on CYP3A4 (compared with MI-1851 and MI-2415) was “inhibit CYP3A4 already at considerably lower concentrations”.

As to `CC(C)(C)[C@H](NC(=O)[C@H](CCCN=C(N)N)NC(=O)Cc1ccc(CN=C(N)N)cc1)C(=O)N[C@@H](CCCN=C(N)N)C(=O)NCc1ccc(C(=N)N)cc1` [MI-1148, 4-guanidinomethyl-phenylacetyl-Arg-Tle-Arg-4-Amba, reference compound], at furin, the Ki was 5.5 pM. For the same compound, the mortality entry in the data set on mice (5 mg/kg i.p.) is reported as “all four mice died”. Also, the maximum tolerated dose in the data set with mice (i.p.) was 2.5 mg/kg. In data set [1], the “stability in human plasma” value is given as “high stability”. Besides, the “activation of MRGPRX2” value in data set [2] was “much stronger activation”.

In the case of `COc1ccc(-c2cccc(S(=O)(=O)N[C@@H](Cc3cccc(C(=N)N)c3)C(=O)N3CCN(C(=O)NC4CCCCC4)CC3)c2)c(OC)c1` [MI-1900], the CYP3A4 inhibition entry in the data set on CYP3A4 was “inhibit CYP3A4 already at considerably lower concentrations”.
